Reference: ChEMBL document CHEMBL1201862, “PubChem BioAssay data set” (2004)
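Protocol summary: plate cells (96-well), add compound at 5 concentrations, incubate 48 h, interpolate endpoints linearly. Here, GI50 denotes the concentration required for 50% inhibition of growth.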 Activity calls are given as the source filed them. No stated cut-off is given here; in the data, active = GI50 up to about 1.1 µM and inactive = higher.

Assays:
Assay in all cases: growth of human tumour cells (NCI), 48 h
SNB-78 = test system: SNB-78
DMS-114 = test system: DMS-114
LXFL 529 = test system: LXFL 529
DMS-273 = test system: DMS-273
RXF 631 = test system: RXF 631
DLD-1 = test system: DLD-1
XF498 = test system: XF498
HOP-18 = test system: HOP-18
M19-MEL = test system: M19-MEL

Structure (SMILES): N#Cc1cccc(N2C(=O)c3c(c(-c4ccccc4)c(-c4ccc(Sc5ccc(-c6c(-c7ccccc7)c7c(c(-c8ccccc8)c6-c6ccccc6)C(=O)N(c6cccc(C#N)c6)C7=O)cc5)cc4)c(-c4ccccc4)c3-c3ccccc3)C2=O)c1
- GI50 (SNB-78): 35.1 µM (inactive)
- GI50 (DMS-114): 89.5 µM (inactive)
- GI50 (LXFL 529): 37.7 µM (inactive)
- GI50 (DMS-273): > 100 µM (inactive)
- GI50 (RXF 631): > 100 µM (inactive)
- GI50 (DLD-1): > 100 µM (inactive)
- GI50 (XF498): 30.5 µM (inactive)

Structure (SMILES): NC1=NC(Cn2nc(-c3ccccc3)c3ccccc3c2=O)=NNC(=O)N1
- GI50 (SNB-78): > 100 µM (inactive)
- GI50 (LXFL 529): > 100 µM (inactive)
- GI50 (DMS-273): > 100 µM (inactive)
- GI50 (HOP-18): > 100 µM (inactive)
- GI50 (DLD-1): > 100 µM (inactive)
- GI50 (M19-MEL): > 100 µM (inactive)

Structure (SMILES): c1csc(C[N+]23CN4CN(CN(C4)C2)C3)c1
- GI50 (DMS-114): 20.6 µM (inactive)
- GI50 (LXFL 529): 20.3 µM (inactive)
- GI50 (DMS-273): 18.9 µM (inactive)
- GI50 (DLD-1): 33.7 µM (inactive)
- GI50 (M19-MEL): 25.9 µM (inactive)

Structure (SMILES): C[S+]([O-])c1ccc(COP(N)(=O)N(CCCl)CCCl)cc1 (stereo not given)
- GI50 (SNB-78): > 100 µM (inactive)
- GI50 (DMS-114): > 100 µM (inactive)
- GI50 (LXFL 529): > 100 µM (inactive)
- GI50 (DMS-273): > 100 µM (inactive)
- GI50 (DLD-1): > 100 µM (inactive)
- GI50 (M19-MEL): > 100 µM (inactive)
- GI50 (XF498): > 100 µM (inactive)

Structure (SMILES): COCC12CC(CC1=O)C1C2ON2c3ccccc3C(=O)C12c1ccccc1 (stereo not given)
- GI50 (SNB-78): 68.7 µM (inactive)
- GI50 (DMS-114): > 100 µM (inactive)
- GI50 (LXFL 529): > 100 µM (inactive)
- GI50 (DMS-273): > 100 µM (inactive)
- GI50 (HOP-18): > 100 µM (inactive)
- GI50 (DLD-1): > 100 µM (inactive)
- GI50 (XF498): > 100 µM (inactive)

Structure (SMILES): N/C(=N\N=C\c1c[nH]c2ccccc12)Nc1ccccc1
- GI50 (SNB-78): 1.08 µM (active)
- GI50 (DMS-114): 0.357 µM (active)
- GI50 (LXFL 529): 0.504 µM (active)
- GI50 (DMS-273): 0.506 µM (active)
- GI50 (HOP-18): 17.9 µM (inactive)
- GI50 (DLD-1): 0.474 µM (active)

Structure (SMILES): Cc1c(Cl)cccc1NC(=O)C(=O)C1C(=O)NC(=O)NC1=O
- GI50 (SNB-78): > 100 µM (inactive)
- GI50 (LXFL 529): > 100 µM (inactive)
- GI50 (DMS-273): > 100 µM (inactive)
- GI50 (HOP-18): > 100 µM (inactive)
- GI50 (DLD-1): > 100 µM (inactive)
- GI50 (M19-MEL): > 100 µM (inactive)
- GI50 (XF498): > 100 µM (inactive)

Structure (SMILES): COC(=O)CCC(=O)N1CC1C (stereo not given)
- GI50 (DMS-114): > 100 µM (inactive)
- GI50 (LXFL 529): > 100 µM (inactive)
- GI50 (DMS-273): > 100 µM (inactive)
- GI50 (HOP-18): > 100 µM (inactive)
- GI50 (DLD-1): > 100 µM (inactive)
- GI50 (M19-MEL): > 100 µM (inactive)
- GI50 (XF498): > 100 µM (inactive)

Structure (SMILES): CCOc1ccc(NC(=O)C(=O)NO)cc1
- GI50 (SNB-78): > 100 µM (inactive)
- GI50 (DMS-114): > 100 µM (inactive)
- GI50 (LXFL 529): > 100 µM (inactive)
- GI50 (DMS-273): > 100 µM (inactive)
- GI50 (HOP-18): > 100 µM (inactive)
- GI50 (DLD-1): > 100 µM (inactive)
- GI50 (M19-MEL): > 100 µM (inactive)

Structure (SMILES): COCCNC(=O)C1C(=O)N(CCOC)C(=O)/C1=N/N (stereo not given)
- GI50 (SNB-78): > 100 µM (inactive)
- GI50 (LXFL 529): > 100 µM (inactive)
- GI50 (DMS-273): > 100 µM (inactive)
- GI50 (DLD-1): > 100 µM (inactive)
- GI50 (M19-MEL): > 100 µM (inactive)
- GI50 (XF498): > 100 µM (inactive)

Structure (SMILES): CSc1ccc(NC(=O)C2c3[nH]c4ccccc4c3C3CCC(C(C)(C)C)CC3C2C(=O)O)cc1 (stereo not given)
- GI50 (SNB-78): 17.2 µM (inactive)
- GI50 (DMS-114): 19.8 µM (inactive)
- GI50 (LXFL 529): 15.9 µM (inactive)
- GI50 (DMS-273): 16.4 µM (inactive)
- GI50 (HOP-18): 16.9 µM (inactive)
- GI50 (DLD-1): 12.6 µM (inactive)
- GI50 (M19-MEL): 21.1 µM (inactive)
- GI50 (XF498): 17.9 µM (inactive)

Structure (SMILES): O=C1C[C@@H]2CCCC[C@@H]2C12SCCS2
- GI50 (SNB-78): > 100 µM (inactive)
- GI50 (DMS-114): 89.1 µM (inactive)
- GI50 (LXFL 529): > 100 µM (inactive)
- GI50 (DMS-273): > 100 µM (inactive)
- GI50 (RXF 631): > 100 µM (inactive)
- GI50 (DLD-1): > 100 µM (inactive)
- GI50 (M19-MEL): > 100 µM (inactive)
- GI50 (XF498): 58.1 µM (inactive)

Structure (SMILES): NC(=O)n1ncc(Cl)c(Cl)c1=O
- GI50 (SNB-78): > 100 µM (inactive)
- GI50 (DMS-114): > 100 µM (inactive)
- GI50 (LXFL 529): > 100 µM (inactive)
- GI50 (DMS-273): > 100 µM (inactive)
- GI50 (RXF 631): > 100 µM (inactive)
- GI50 (HOP-18): > 100 µM (inactive)
- GI50 (DLD-1): > 100 µM (inactive)
- GI50 (M19-MEL): > 100 µM (inactive)
- GI50 (XF498): > 100 µM (inactive)

Structure (SMILES): CC(C)=CCC/C(=C/CC/C(C)=C/CCc1ccoc1)C(=O)O
- GI50 (SNB-78): > 100 µM (inactive)
- GI50 (DMS-114): > 100 µM (inactive)
- GI50 (LXFL 529): > 100 µM (inactive)
- GI50 (DLD-1): 84.5 µM (inactive)
- GI50 (M19-MEL): > 100 µM (inactive)
- GI50 (XF498): > 100 µM (inactive)

Structure (SMILES): BrC12c3ccccc3Sc3ccccc3C1(Br)c1ccccc12 (stereo not given)
- GI50 (DMS-114): 19.5 µM (inactive)
- GI50 (LXFL 529): 20.9 µM (inactive)
- GI50 (DMS-273): 36 µM (inactive)
- GI50 (RXF 631): 25.9 µM (inactive)
- GI50 (HOP-18): 51.5 µM (inactive)
- GI50 (DLD-1): 33 µM (inactive)
- GI50 (M19-MEL): 35.2 µM (inactive)

Structure (SMILES): COc1ccc(/C=C2\CCC(C)(CN(C)C)C2=O)cc1Br (stereo not given)
- GI50 (SNB-78): 38.1 µM (inactive)
- GI50 (DMS-114): 24.4 µM (inactive)
- GI50 (LXFL 529): 17.9 µM (inactive)
- GI50 (DMS-273): 18.2 µM (inactive)
- GI50 (HOP-18): 28.8 µM (inactive)
- GI50 (DLD-1): 17.3 µM (inactive)
- GI50 (M19-MEL): 17.3 µM (inactive)
- GI50 (XF498): 18.8 µM (inactive)

Structure (SMILES): CS/C(C)=N/OC(=O)NCCCCNc1ccc(N=[N+]=[N-])cc1
- GI50 (SNB-78): 82.6 µM (inactive)
- GI50 (DMS-114): 13.1 µM (inactive)
- GI50 (LXFL 529): 24.1 µM (inactive)
- GI50 (RXF 631): 17.4 µM (inactive)
- GI50 (HOP-18): > 100 µM (inactive)
- GI50 (DLD-1): > 100 µM (inactive)
- GI50 (M19-MEL): 34.6 µM (inactive)
- GI50 (XF498): 13.8 µM (inactive)

Structure (SMILES): CN1CCC(CN2c3ccccc3Sc3ccccc32)CC1
- GI50 (SNB-78): 15.8 µM (inactive)
- GI50 (DMS-114): 15.9 µM (inactive)
- GI50 (LXFL 529): 14.4 µM (inactive)
- GI50 (DMS-273): 13.4 µM (inactive)
- GI50 (HOP-18): 14.3 µM (inactive)
- GI50 (DLD-1): 14.7 µM (inactive)
- GI50 (M19-MEL): 13.4 µM (inactive)
- GI50 (XF498): 11.5 µM (inactive)

Structure (SMILES): Cc1cc(O)nc(CNC(=O)c2cccc3ccccc23)n1
- GI50 (SNB-78): > 100 µM (inactive)
- GI50 (LXFL 529): > 100 µM (inactive)
- GI50 (DMS-273): > 100 µM (inactive)
- GI50 (DLD-1): > 100 µM (inactive)
- GI50 (M19-MEL): > 100 µM (inactive)
- GI50 (XF498): > 100 µM (inactive)

Structure (SMILES): COC1C2C[C@@H](O)CCC2C(C(=O)OCCl)C[C@H]1O (stereo not given in full)
- GI50 (SNB-78): > 100 µM (inactive)
- GI50 (DMS-114): > 100 µM (inactive)
- GI50 (LXFL 529): > 100 µM (inactive)
- GI50 (DMS-273): > 100 µM (inactive)
- GI50 (RXF 631): > 100 µM (inactive)
- GI50 (HOP-18): > 100 µM (inactive)
- GI50 (DLD-1): > 100 µM (inactive)
- GI50 (M19-MEL): > 100 µM (inactive)

Structure (SMILES): CCOC(=O)N1CCC(=O)C[C@@H]1C/C=C/P1(=O)O[C@H](c2ccccc2)C(C)N1C(C)C (stereo not given in full)
- GI50 (SNB-78): > 100 µM (inactive)
- GI50 (DMS-114): > 100 µM (inactive)
- GI50 (LXFL 529): > 100 µM (inactive)
- GI50 (DMS-273): > 100 µM (inactive)
- GI50 (M19-MEL): > 100 µM (inactive)

Structure (SMILES): c1ccc2c(CNCCCCCCNCc3cccc4ccccc34)cccc2c1
- GI50 (SNB-78): 9.44 µM (inactive)
- GI50 (DMS-114): 7.45 µM (inactive)
- GI50 (LXFL 529): 1.91 µM (inactive)
- GI50 (DMS-273): 13.6 µM (inactive)
- GI50 (RXF 631): 3.74 µM (inactive)
- GI50 (HOP-18): 15.5 µM (inactive)
- GI50 (DLD-1): 3.78 µM (inactive)
- GI50 (M19-MEL): 4.2 µM (inactive)
- GI50 (XF498): 2.42 µM (inactive)
